According to US10815222B2, “Compounds for use in the treatment of kinetoplastid infection” (C.N.C.C.S. S.c.a.r.l. COLLEZIONE NAZIONALE DEI COMPOSTI …, priority 2016, dated 2020):
Like-named read-outs stand apart in the source and are kept apart here.

Columns and labels:
[1] = PK studies: plasma exposure and pharmacokinetic parameters after i.v., oral and i.p. administration; format: in vivo, C57BL/6 mice
Protocol: C57BL/6 mice were used to evaluate plasma exposure and pharmacokinetic parameters after intravenous, oral and intraperitoneal administration (5, 10, 30 mpk). In each animal an indwelling cannula was implanted in the right jugular vein for blood sampling. The surgery was performed under light anaesthesia (Ketamine-Xilazine (85 mg/kg and 2.5 mg/kg respectively i.m.) one day prior the experiment). During the kinetic study, all animals were housed individually in plastic metabolism cages, and were unrestrained throughout the experiment. Compounds (6 mg/mL) were dissolved in PEG400/H2O (50/50). After an overnight fast, the mice (15 animals per experiment) received an i.v. (via caudal vein) or an oral dose of the compound. Blood samples were collected at different times point after dosing. Plasma was separated immediately after blood sampling by centrifugation, and the plasma samples were kept frozen (−20° C.) until assayed by LC/MS/MS.
Analytical procedures: Plasma samples were extracted using Liquid Handling Robot MultiProbe Packard by protein precipitation with acetonitrile. Then the samples were centrifuged (3000 rpm×15 min at 4° C.) and the supernatant transferred and dried under nitrogen. The samples were reconstituted in water/acetonitrile 90/10 and then injected directly into an HPLC column. Sample analyses were performed using a an API 3000 or/and API 2000 or/and API 4000 Mass Spectrometer interfaced via the Turbo Ion Spray (ESI)/APCI to an LC system consisting of an HTS PAL CTC autosampler and an Agilen HP 1100 Binary Pump. The results are calculated using Analyst Software linear regression with 1/x*x weighting. The Assay Precision was calculated for the Quality Controls by Watson Lims database.
Pharmacokinetic Analysis: The plasma clearance (CLp) of the compounds were calculated (using Watson PK program) as the dose divided by the area under the plasma concentration-time curve from time zero to infinity (AUC0-∞). The apparent half-life was estimated from the slope of the terminal phase of the log plasma concentration-time data. The volume of distribution (Vdss) was determined using the following noncompartmental method: Vdss=(Dose IV×AUMC)/(AUC0-∞)2 where AUMC is the total area under the first moment of the drug concentration time curve from time zero to infinity. Bioavailability was estimated as the AUC0-∞ ratio following oral and intravenous administration, normalized for differences in dose.

HUVEC cells = assay: HUVEC cytotoxicity assay (CellTiter Glo, 72 h); format: cell-based; conditions: Homo sapiens, read-out: Cell Proliferation HUVEC IC50
Protocol: (§1) HeLa cells (ATCC® CCL2™) in DMEM (Dulbecco Modified Eagle's Medium) without phenol red, Thermo, 11880, USA+10% FBS+1× PenStrep+1× Gln or HUVEC cells (ATCC® CRL1730™) in EBM-2 (Endothelial Growth Basal Medium, Lonza, CC3156)+EGM-2 SingleQuotsTMSupplements and Growth Factors (Lonza, CC4176)+1× Penicyllin-Streptomycin (PenStrep, ThermoFisher)+1× Glutamine, are plated in a 384 well plate (Thermo, 4334-11, USA) to a density of 2000 cells per well and let recover for four hours at 37° C., 5% CO2 in a humidified atmosphere. After the recovery, compounds are transferred to assay plates as per compound preparation method. Assay plates are then incubated at 37° C., 5% CO2 in a humidified atmosphere for 72 hours. Cell viability is measured by the CellTiter Glo (Promega, G8080, USA) as per manufacturer instruction.

[2] = system: Bloodstream form of Trypanosoma brucei, strain Lister 427; assay: Trypanosoma brucei growth inhibition assay (CellTiter-Glo, 24 h); format: cell-based; conditions: Trypanosoma brucei
In short: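 Growth read-out was CellTiter-Glo luminescence after 24 h at 37 °C incubation of 1500 bloodstream-form Lister 427 trypanosomes per well with compound, in supplemented IMDM containing 10% FBS and at most 0.25% DMSO.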

HeLa cells = assay: HeLa cytotoxicity assay (CellTiter Glo, 72 h); format: cell-based; conditions: Homo sapiens, read-out: Cell Proliferation Hela IC50
Protocol: as §1

For `COc1nc2ccccc2cc1-c1cnc(C2CN(CC3CCOC3)CCN2C(=O)Cn2c(C(F)(F)F)nc3ccccc32)[nH]1` (stereo not shown) [1-(2-(5-(2-methoxyquinolin-3-yl)-1H-imidazol-2-yl)-4-((tetrahydrofuran-3-yl)methyl)piperazin-1-yl)-2-(2-(trifluoromethyl)-1H-benzo[d]imidazol-1-yl)ethan-1-one], the clearance ([1]; C57BL/6, intravenous, 5 mpk, mouse, plasma clearance) was 2.68 L/h/kg, the AUC ([1]; C57BL/6, mouse, plasma, oral, 10 mpk) was 4.6 µM·h and the bioavailability ([1]; C57BL/6, plasma, 10 mg/kg, mouse, 10 mpk, po, single oral dose, read-out: Oral Bioavailability F %) was 78%. For the same molecule, the “i.p. max brain concentration” value ([1]; mouse, after intraperitoneal injection (30 mpk), brain) was 190 nM, the IC50 (HUVEC cells) was 14.1 µM and the EC50 ([2]; T. Brucei Growth Inibition Assay, class symbols, read-out: T. Brucei GI EC50) was under 0.1 µM. The EC50 ([2]; Table 3, read-out: T. brucei GI EC50) was 0.0299 µM, the EC50 ([2]; Table 4, read-out: T. brucei Growth inhibition EC50) was 0.03 µM and the EC90 ([2]; Table 4, read-out: T. brucei Growth inhibition EC90) was 0.287 µM. It also gave an IC50 (HeLa cells) of 21.5 µM.
